# Source: paper PMC6445550 (Analytical biochemistry, 2014)
# Biological target: T1, Erf2 (Saccharomyces cerevisiae, UniProt Q06551)
# T1 sequence (Q06551 1-359): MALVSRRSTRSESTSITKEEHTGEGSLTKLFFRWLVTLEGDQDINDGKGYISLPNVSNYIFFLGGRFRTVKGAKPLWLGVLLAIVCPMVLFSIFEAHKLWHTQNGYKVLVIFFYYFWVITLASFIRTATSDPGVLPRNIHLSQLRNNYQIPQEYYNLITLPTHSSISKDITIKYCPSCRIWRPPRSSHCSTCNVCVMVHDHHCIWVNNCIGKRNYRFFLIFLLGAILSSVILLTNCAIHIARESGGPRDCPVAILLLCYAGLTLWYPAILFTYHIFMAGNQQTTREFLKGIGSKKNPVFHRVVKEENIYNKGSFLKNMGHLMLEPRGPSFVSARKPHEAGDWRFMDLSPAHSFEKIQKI
# Test: fluorescence coupled autopalmitoylation assay with purified complex
# Assay type: biochemical
smiles,measurement,value
"CCCCCCCCCCCCCCC(Br)C(=O)O (stereo not shown) [2-BP, 2-bromopalmitate]",IC50,~100 µM
